According to ChEMBL document CHEMBL2095176, “GSK Tuberculosis Screening Data”:
Converted amounts (≈) assume the structure as drawn.

Tested on: Mycobacterium tuberculosis variant bovis BCG
Test: microbe, parasite or virus in culture
Type: functional

| SMILES | MIC90 |
| --- | --- |
| O=C(NC(=Cc1ccc(-c2cccc(C(F)(F)F)c2)o1)C(=O)N1CCOCC1)c1ccccc1 | 6.8 µM (≈ 3.2 µg/mL) |
| CC(C)N(C(=O)CSc1nc2cc(Cl)ccc2[nH]1)C(C)C | 9.5 µM (≈ 3.1 µg/mL) |
| COc1ccc2cc(C(=O)Nc3ccc(C4CCN(C)CC4)cc3)sc2c1 | 2.9 µM (≈ 1.1 µg/mL) |
| COc1ccc(Nc2ccccc2N)cc1Cl | 2.3 µM (≈ 0.572 µg/mL) |
| CCS(=O)(=O)c1ccc(C(=O)Nc2nc(-c3ccccn3)cs2)cc1 | 3.7 µM (≈ 1.38 µg/mL) |
| Cc1cc(NCCc2ccccc2)nc(NC(=N)Nc2ccc(Cl)cc2)n1 | 2 µM (≈ 0.762 µg/mL) |
| Cc1nc2ccccn2c1C(=O)Nc1ccc(C(C)(C)C)cc1 | 4.9 µM (≈ 1.51 µg/mL) |
| O=C(/C=C/c1ccccc1)N1CCN(Cc2cccc(OCc3ccccc3)c2)CC1 | 8.3 µM (≈ 3.42 µg/mL) |
| Cc1cc(/C=C/c2cccc(C(=O)O)c2)cc(Cl)c1OC1CCN(C)C1 (configuration not stated) | 8 µM (≈ 2.97 µg/mL) |
| CCOc1ccc(CC(=O)Nc2cc(C)nn2-c2nc(C)c(CC)c(=O)[nH]2)cc1 | 3.3 µM (≈ 1.31 µg/mL) |
| O=C(Nc1nc(-c2ccccn2)cs1)c1ccc2c(c1)CCCC2 | 6.8 µM (≈ 2.28 µg/mL) |
| Cc1cc(C(=O)Nc2nc(-c3ccccn3)nc3ccsc23)no1 | 2.8 µM (≈ 0.945 µg/mL) |
| c1ccc(-c2ccc(CNCCn3ccnc3-c3ccccc3)cc2)cc1 | 9.3 µM (≈ 3.29 µg/mL) |
| O=C(Nc1ccc(C(F)(F)F)cc1)OCC1CCCN2CCCCC12 (configuration not stated) | 6.9 µM (≈ 2.46 µg/mL) |
| O=C(CSc1ccc(Cl)cc1)NNC(=O)c1ccncc1 | 8.1 µM (≈ 2.61 µg/mL) |
| O=C(Nc1ccc(-c2nc3ccccc3o2)cc1)c1cccnc1 | 4.5 µM (≈ 1.42 µg/mL) |
| Cc1cc(Br)ccc1-c1ccc(CNCC(C)O)o1 (configuration not stated) | 9.9 µM (≈ 3.21 µg/mL) |
| CN(C)CCCSc1nc(N2CCCC2)c2c(c1C#N)CCCC2 | 8.5 µM (≈ 2.93 µg/mL) |
| O=C(Nc1nnc(-c2ccc(Cl)cc2)o1)c1cccc(C(F)(F)F)c1 | 5.3 µM (≈ 1.95 µg/mL) |

| SMILES | MIC90 |
| --- | --- |
| COc1ccccc1C(=O)N(Cc1cccnc1)Cc1cc2c(C)cc(C)cc2nc1Cl | 5.9 µM (≈ 2.63 µg/mL) |
| O=C(Nc1ccccc1-c1nc(Cl)cs1)OCCC1CCCCN1 (configuration not stated) | 0.2 µM (≈ 0.0732 µg/mL) |
| CSc1cccc(-c2nnc(NC(=O)c3ccc4c(c3)CCCC4)o2)c1 | 7.2 µM (≈ 2.63 µg/mL) |
| Cc1cc(CN2CC[C@H](NC(=O)c3ccc(Cl)c(Cl)c3)C2)ccc1OCCN1CCNCC1 | 7.1 µM (≈ 3.49 µg/mL) |
| CN(C)CCCC(=O)Nc1[nH]nc2cnc(-c3cncc(-c4ccccc4)c3)cc12 | 8.4 µM (≈ 3.36 µg/mL) |
| CCOc1cc(CC)c(Br)cc1C(=O)Nc1cccc2c1CCN(C)C2 | 4.6 µM (≈ 1.92 µg/mL) |
| COc1cc(C(=O)Nc2nc(-c3ccccn3)cs2)ccc1OCC(C)C | 7 µM (≈ 2.68 µg/mL) |
| COc1ccc(Nc2ccccc2NC(=O)c2ccc(O)nc2)cc1 | 9 µM (≈ 3.02 µg/mL) |
| O=C(Nc1nnc(-c2ccccc2)o1)c1ccc2c(c1)CCCC2 | 4.1 µM (≈ 1.31 µg/mL) |
| CCOc1ccc(NC(=O)N(C2CCCCC2)C(C)c2cccnc2)cc1 (configuration not stated) | 7.2 µM (≈ 2.65 µg/mL) |
| CC1CCN(Cc2c(O)ccc3oc(-c4ccco4)cc(=O)c23)CC1 | 2.6 µM (≈ 0.882 µg/mL) |
| O=C(Nc1nnc(-c2ccc(Cl)cc2)o1)c1ccc(F)cc1 | 3.9 µM (≈ 1.24 µg/mL) |
| N#Cc1nc(-c2ccc(F)cc2)oc1S(=O)(=O)c1ccc(Br)cc1 | 1.8 µM (≈ 0.733 µg/mL) |
| COc1ccc(S(=O)(=O)Nc2ccc(Nc3ccccc3)cc2OC)cc1 | 3 µM (≈ 1.15 µg/mL) |
| CC(C)Sc1ccc(C(=O)Nc2nc(-c3ccccn3)cs2)cc1 | 1.2 µM (≈ 0.427 µg/mL) |
| Nc1nc2cc(-c3cncc(Oc4ccc(F)cc4)c3)ccc2[nH]1.O=C(O)C(F)(F)F.O=C(O)C(F)(F)F | 6.2 µM |
| O=C(Nc1nnc(-c2ccc(Br)cc2)o1)c1cccc(C(F)(F)F)c1 | 1.5 µM (≈ 0.618 µg/mL) |
| CC(C)N1CCN(c2nc(CCN3CCN(c4cccc(C(F)(F)F)c4C#N)CC3)cs2)CC1 | 5.5 µM (≈ 2.71 µg/mL) |
| CNC(=O)c1cc(Nc2ncc(F)c(N(C)c3ccc4c(C)[nH]nc4c3)n2)cc(OCCCN)c1 | 7.9 µM (≈ 3.78 µg/mL) |

| SMILES | MIC90 |
| --- | --- |
| COc1ccc(-c2ccc(Nc3cccc(S(=O)(=O)CCNC4CCC4)c3)nc2)cn1 | 1.6 µM (≈ 0.702 µg/mL) |
| CC(C)(C)C(=O)CC1(O)Oc2ccccc2N=C1C=C(O)C(C)(C)C (configuration not stated) | 5.3 µM (≈ 1.83 µg/mL) |
| Nc1nc(N)c2c(Sc3ccc4ccccc4c3)cccc2n1 | 4.4 µM (≈ 1.4 µg/mL) |
| Cc1ccc(-c2nnc3sc(Cc4cccs4)nn23)cc1 | 5.5 µM (≈ 1.72 µg/mL) |
| O=C(c1cccc(-c2noc(-c3ccccc3)n2)c1)N1CCCCC1CCO (configuration not stated) | 0.9 µM (≈ 0.34 µg/mL) |
| Cl.Cl.O=C(Nc1ccc(NC2=NCCN2)cc1)c1ccc(C(=O)Nc2ccc(NC3=NCCN3)cc2)cc1 | 0.4 µM |
| Cn1ccnc1CNCCS(=O)(=O)c1cccc(Nc2ccc(-c3cccc(F)c3)cn2)c1 | 4.3 µM (≈ 2 µg/mL) |
| O=C(CSc1nnc(-c2ccccc2)o1)Nc1nc(-c2ccccn2)cs1 | 6.6 µM (≈ 2.61 µg/mL) |
| O=C(NNC(=O)C1CC1C(=O)O)c1ccncc1 (configuration not stated) | 6.8 µM (≈ 1.69 µg/mL) |
| Cc1occc1C(=O)Nc1nc(-c2ccccn2)nc2ccsc12 | 1.1 µM (≈ 0.37 µg/mL) |
| O=C(Cc1ccc(Cl)c(Cl)c1)Nc1nc(-c2ccccn2)cs1 | 3.2 µM (≈ 1.17 µg/mL) |
| CCCc1ccc(S(=O)(=O)Nc2cc(CN3CCN(CCC)CC3)ccc2C)cc1 | 9.9 µM (≈ 4.25 µg/mL) |
| COc1ccc(-c2nc(CCNC(=O)c3ccc(OC)cc3OC)cs2)cc1 | 6.4 µM (≈ 2.55 µg/mL) |
| Fc1ccc(F)c(-c2noc(CC3CCN(Cc4ccsc4)C3)n2)c1 (configuration not stated) | 3.5 µM (≈ 1.26 µg/mL) |
| COc1ccc(C(=O)[C@H]2C[C@@H]2CN(Cc2ccccn2)Cc2ccccn2)cc1 | 7.7 µM (≈ 2.98 µg/mL) |
| Cc1ccc(C)c(-c2nnc(NC(=O)c3ccc(Cl)s3)o2)c1 | 2.8 µM (≈ 0.935 µg/mL) |
| CCN(Cc1ccc2c(c1)OCO2)C(=O)CSc1nc(NC)c2ccccc2n1 | 3.3 µM (≈ 1.35 µg/mL) |
| Cc1ccc(-c2nnc(NC(=O)c3ccc(F)cc3)o2)cc1C | 2.3 µM (≈ 0.716 µg/mL) |
| O=C(Nc1ccc(C(=O)N2CCCCC2c2nc3ccccc3s2)cc1)c1ccco1 (configuration not stated) | 0.1 µM (≈ 0.0432 µg/mL) |
